Source: patent US20130183257A1, “COMPOSITIONS AND METHODS FOR IMPROVING SKIN APPEARANCE” (SYTHEON LTD., priority 2009, published 2013)
Marks after values point to notes of the source that are not given here.

Experiment: Solubility study of solid ingredients in DOI and co-solvent
Format: physicochemical
Protocol: Noting the surprising ease with which the various phases incorporating the DOI were prepared, a study was conducted to evaluate whether the DOI was acting as or solvent for or aiding in the solubility of certain of the solid ingredients with which it was combined. In this particular evaluation, the solubility of two solid sunscreen actives, butyl methoxydibenzoylmethane (avobenzone) and benzophenone-3 (“BP3”), and another solid cosmetic active, hexylresorcinol (“HR”) were evaluated in DOI. Additionally, the solubility of avobenzone was further evaluated in C12-C15 alkylbenzoate (“AB”) and in the combination of DOI and C12-C15 alkylbenzoate (70:30)—avobenzone being the sunscreen active and C12-C15 alkylbenzoate a co-solvent of the Sunscreen Formulation of Example 5C above. Each solution was prepared by warming 10 grams of the solvents to ˜45° C., adding the avobenzone and stirring the mixture for at least 20 min to make sure the all of the solid is solubilized. The solutions were then allowed to stand at room temp (˜25 C) and then visually examined for signs of crystal formation at 18 hours and 24 hours. Percent solubility was then calculated.

[1] = room temp (~25 C), visual examination

C12-C15 alkylbenzoate [AB]
Solubility of Avobenzone in the solvent (dissolved at ~45° C., standing at room temp (~25 C)): 23%*
Avobenzone crystal formation, 18 hours [1]: yes
Avobenzone crystal formation, 24 hours [1]: yes
